In ChEMBL document CHEMBL1155100, “Design and synthesis of novel 3-hydroxy-cyclobut-3-ene-1,2-dione derivatives as thyroid hormone receptor beta (TR-beta) selective ligands” (Bioorg Med Chem Lett, 2008):

Columns and labels:
[1] = biological target: T1, Thyroid hormone receptor beta (Homo sapiens, UniProt P10828)
T1 sequence (P10828 whole entry): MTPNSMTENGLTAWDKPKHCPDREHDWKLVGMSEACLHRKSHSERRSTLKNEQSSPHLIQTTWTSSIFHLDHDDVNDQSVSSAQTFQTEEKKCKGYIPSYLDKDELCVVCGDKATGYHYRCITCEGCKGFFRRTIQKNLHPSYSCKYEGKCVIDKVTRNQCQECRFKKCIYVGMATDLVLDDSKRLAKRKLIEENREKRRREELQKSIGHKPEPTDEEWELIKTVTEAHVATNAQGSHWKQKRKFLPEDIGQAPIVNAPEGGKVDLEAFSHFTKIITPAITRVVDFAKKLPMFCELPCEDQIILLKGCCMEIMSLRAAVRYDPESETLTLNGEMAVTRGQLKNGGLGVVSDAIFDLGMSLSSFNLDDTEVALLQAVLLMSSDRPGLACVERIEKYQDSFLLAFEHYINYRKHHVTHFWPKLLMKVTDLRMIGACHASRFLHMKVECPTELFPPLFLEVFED

[2] = biological target: T2, Thyroid hormone receptor alpha (Homo sapiens, UniProt P10827); test: Agonist activity at human thyroid hormone receptor alpha expressed in CV1 cells by TRE-luciferase assay; assay type: functional, cell-based, CV-1
T2 sequence (P10827 whole entry): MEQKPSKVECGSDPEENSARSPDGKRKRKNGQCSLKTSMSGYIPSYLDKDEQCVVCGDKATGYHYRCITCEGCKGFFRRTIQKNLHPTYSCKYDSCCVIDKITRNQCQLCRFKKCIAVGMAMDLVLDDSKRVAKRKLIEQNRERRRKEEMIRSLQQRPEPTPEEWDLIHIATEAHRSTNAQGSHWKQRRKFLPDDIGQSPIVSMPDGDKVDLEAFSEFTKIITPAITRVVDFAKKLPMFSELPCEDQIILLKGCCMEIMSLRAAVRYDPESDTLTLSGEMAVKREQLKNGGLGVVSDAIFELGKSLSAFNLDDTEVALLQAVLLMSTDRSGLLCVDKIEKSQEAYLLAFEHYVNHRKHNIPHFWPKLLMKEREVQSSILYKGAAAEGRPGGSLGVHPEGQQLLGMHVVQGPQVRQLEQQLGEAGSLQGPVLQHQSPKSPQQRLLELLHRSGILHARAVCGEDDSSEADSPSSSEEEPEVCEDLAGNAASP

Row | SMILES | EC50 [1] [nM] | EC50 [2] [nM]
1 | CC(C)c1cc(Oc2c(Cl)cc(Nc3c(O)c(=O)c3=O)cc2Cl)ccc1O | 70 | 222
2 | CC(C)(C)c1cc(Oc2c(Cl)cc(Nc3c(O)c(=O)c3=O)cc2Cl)ccc1O | 317 | 1060
